Target: human BACE1 (Homo sapiens, UniProt P56817)
Experiment: BACE1 binding assay (SPA-based radioligand binding)
Set-up: biotin (biotinylated form); made in house; host or cells: Freestyle HEK293 cells
Conditions: pH 4.5, 10 nM radioligand, Ki=IC50/(1+L/Kd)
Outline: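 SPA radioligand displacement: biotinylated human BACE1 (HEK293-expressed, 6 nM final) with 10 nM [3H]-isophthalamide ligand and streptavidin beads in 50 mM sodium acetate pH 4.5, 50 mM NaCl, 0.03% Tween-20, 1 h at room temperature. Non-specific binding defined with 1 μM reference inhibitor. IC50 converted to Ki via Cheng-Prusoff using saturation-derived Kd.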

Sequence of human BACE1 (P56817 46-501): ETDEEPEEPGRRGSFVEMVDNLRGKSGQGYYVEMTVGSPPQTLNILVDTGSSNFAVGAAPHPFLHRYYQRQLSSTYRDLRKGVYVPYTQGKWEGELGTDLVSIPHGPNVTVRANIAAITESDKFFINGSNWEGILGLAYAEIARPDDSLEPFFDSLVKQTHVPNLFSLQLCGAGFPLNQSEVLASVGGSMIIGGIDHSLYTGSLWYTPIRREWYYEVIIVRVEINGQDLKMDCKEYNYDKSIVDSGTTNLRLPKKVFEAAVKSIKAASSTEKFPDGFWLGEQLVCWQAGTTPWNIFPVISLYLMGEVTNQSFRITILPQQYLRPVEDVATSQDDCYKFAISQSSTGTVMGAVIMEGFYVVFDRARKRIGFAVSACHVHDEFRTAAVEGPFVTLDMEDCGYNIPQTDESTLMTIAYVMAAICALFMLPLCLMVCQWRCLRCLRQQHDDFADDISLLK

| Ki [nM] | Structure (SMILES) |
| --- | --- |
| 11 | COc1cnc(C(=O)Nc2ccc(F)c([C@]34COC[C@@]3(F)C[C@@](C)(F)C(N)=N4)c2)cn1 [Example 7, N-(3-((3R,4aR,7aS)-2-amino-3,4a-difluoro-3-methyl-3,4,4a,5,7,7a-hexahydrofuro[3,4-b]pyridin-7a-yl)-4-fluorophenyl)-5-methoxypyrazine-2-carboxamide] |
| 51 | [2H]C([2H])([2H])Oc1ccc(C(=O)Nc2ccc(F)c([C@]34COC[C@H]3C[C@@](F)(CF)C(N)=N4)c2)nc1 [Example 22, N-(3-((3S,4aS,7aS)-2-amino-3-fluoro-3-(fluoromethyl)-3,4,4a,5-tetrahydrofuro[3,4-b]pyridin-7a-yl)-4-fluorophenyl)-5-(methoxy-d3)picolinamide] |
